Tests used:
HepG2 = test: Anticancer activity against human HepG2 cells incubated for 24 hrs by MTT assay; type: functional, cell-based; settings: HepG2, 24 h
K562 = test: Anticancer activity against human K562 cells incubated for 24 hrs by MTT assay; type: functional, cell-based; settings: K562, 24 h
[1] = biological target: T1, Tyrosine-protein phosphatase non-receptor type 1 (Homo sapiens, UniProt P18031); test: Inhibition of recombinant PTP1B (unknown origin) using pNPP substrate
T1 sequence (P18031 whole entry): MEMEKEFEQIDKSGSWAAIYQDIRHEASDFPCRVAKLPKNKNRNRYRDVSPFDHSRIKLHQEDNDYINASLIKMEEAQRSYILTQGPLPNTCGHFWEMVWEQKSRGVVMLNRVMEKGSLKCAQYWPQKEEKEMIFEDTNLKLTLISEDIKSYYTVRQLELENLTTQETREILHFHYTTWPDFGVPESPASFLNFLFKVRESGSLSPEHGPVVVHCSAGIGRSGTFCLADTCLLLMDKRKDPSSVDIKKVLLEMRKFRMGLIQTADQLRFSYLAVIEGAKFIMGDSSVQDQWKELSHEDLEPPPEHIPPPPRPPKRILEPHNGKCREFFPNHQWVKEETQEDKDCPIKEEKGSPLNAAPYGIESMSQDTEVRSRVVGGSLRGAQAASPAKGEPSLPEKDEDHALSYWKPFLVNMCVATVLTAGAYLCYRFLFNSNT

HEK293 = test: Cytotoxicity activity against human HEK293 cells incubated for 24 hrs by MTT assay; type: cell-based; settings: HEK293, 24 h
MDA-MB-231 = test: Anticancer activity against human MDA-MB-231 cells incubated for 24 hrs by MTT assay; type: functional, cell-based; settings: MDA-MB-231, 24 h
HeLa = test: Anticancer activity against human HeLa cells incubated for 24 hrs by MTT assay; type: functional, cell-based
MCF7 = test: Anticancer activity against human MCF7 cells incubated for 24 hrs by MTT assay; type: functional, cell-based; settings: MCF7, 24 h
[2] = Stability in various solvents up to 96 hrs at different temperatures; type: physicochemical

COC(=O)c1scc(-c2ccc(NC(=O)c3ccc(C(F)(F)F)cc3)cc2)c1OC
IC50 (HepG2): 24.6 µM | IC50 (K562): 9.26 µM | IC50 [1]: 14.8 µM | IC50 (HEK293): 48.3 µM | IC50 (MDA-MB-231): 18.3 µM | IC50 (HeLa): 14.4 µM | IC50 (MCF7): 24.6 µM

COC(=O)c1scc(-c2ccc(NC(=O)c3ncc(Cl)cc3Br)cc2)c1OC
IC50 (HepG2): 9.53 µM | IC50 (K562): 12.6 µM | IC50 [1]: 11.2 µM | IC50 (HEK293): > 50 µM | IC50 (MDA-MB-231): 8.36 µM | IC50 (HeLa): 18.3 µM | IC50 (MCF7): 5.46 µM

COC(=O)c1scc(-c2ccc(NC(=O)c3ccccn3)cc2)c1OC
IC50 (HepG2): 10.3 µM | IC50 (K562): 24.2 µM | IC50 [1]: 11.3 µM | IC50 (MDA-MB-231): 8.25 µM | IC50 (HeLa): > 50 µM | IC50 (MCF7): 19.2 µM

COC(=O)c1scc(-c2ccc(NC(=O)c3ccc(C#N)nc3)cc2)c1OC
IC50 (HepG2): 22.5 µM | IC50 [1]: 12.5 µM | IC50 (MDA-MB-231): 28.5 µM | IC50 (MCF7): 9.54 µM

COC(=O)c1scc(-c2ccc(NC(=O)c3ccc(C(F)(F)F)cc3Br)cc2)c1OC
IC50 (HepG2): 28.2 µM | IC50 (K562): 9.25 µM | IC50 [1]: 16.5 µM | IC50 (HEK293): > 50 µM | IC50 (MDA-MB-231): 19.6 µM | IC50 (HeLa): 16.2 µM | IC50 (MCF7): 22.4 µM

COC(=O)c1scc(-c2ccc(NC(=O)c3cccs3)cc2)c1OC
IC50 (HepG2): 15.3 µM | IC50 [1]: 24.3 µM | IC50 (HEK293): > 50 µM | IC50 (MDA-MB-231): > 50 µM | IC50 (HeLa): > 50 µM | IC50 (MCF7): 18.6 µM

COC(=O)c1scc(-c2ccc(NC(=O)Cc3c(Cl)cccc3Cl)cc2)c1OC
IC50 (HepG2): 13.5 µM | IC50 (K562): 9.56 µM | IC50 [1]: 16.3 µM | IC50 (MDA-MB-231): 14.2 µM | IC50 (MCF7): 12.2 µM

COC(=O)c1scc(-c2ccc(NC(=O)c3cccc(C(F)(F)F)c3)cc2)c1OC
IC50 (HepG2): 32.5 µM | IC50 (K562): 6.13 µM | IC50 [1]: 12.3 µM | IC50 (MDA-MB-231): 24.6 µM | IC50 (HeLa): 19.3 µM | IC50 (MCF7): 26.2 µM

COC(=O)c1scc(-c2ccc(NC(=O)c3cccc(I)c3)cc2)c1OC
IC50 (HepG2): 16.5 µM | IC50 (K562): 14.7 µM | IC50 [1]: 14.5 µM | IC50 (HEK293): 42.7 µM | IC50 (MDA-MB-231): 8.24 µM | IC50 (HeLa): 12.7 µM | IC50 (MCF7): 12.2 µM

COC(=O)c1scc(-c2ccc(NC(=O)c3ccc(F)c(Cl)n3)cc2)c1OC
IC50 (HepG2): 10.3 µM | IC50 (K562): 8.25 µM | IC50 [1]: 12.3 µM | IC50 (MDA-MB-231): 10.3 µM | IC50 (HeLa): 16.2 µM | IC50 (MCF7): 10.3 µM

COC(=O)c1scc(-c2ccc(NC(=O)c3ccc(OC)nc3)cc2)c1OC
IC50 (HepG2): > 50 µM | IC50 (K562): 18.2 µM | IC50 [1]: 22.3 µM | IC50 (HEK293): > 50 µM | IC50 (MDA-MB-231): 15.3 µM | IC50 (HeLa): 24.4 µM | IC50 (MCF7): 5.25 µM

COC(=O)c1scc(-c2ccc(NC(=O)c3ccc(C(F)(F)F)nc3)cc2)c1OC
IC50 (HepG2): 23.3 µM | IC50 (K562): 12.5 µM | IC50 [1]: 7.29 µM | IC50 (MDA-MB-231): 7.25 µM | IC50 (HeLa): 23.5 µM | IC50 (MCF7): 1.47 µM

COC(=O)c1scc(-c2ccc(NC(=O)c3cccc(OC(F)(F)F)c3)cc2)c1OC
IC50 (HepG2): 0.72 µM | IC50 (K562): 18.2 µM | IC50 [1]: 6.37 µM | IC50 (MDA-MB-231): 7.54 µM | IC50 (HeLa): 16.6 µM | IC50 (MCF7): 2.22 µM

COc1cccc2c1C(=O)c1c(O)c3c(c(O)c1C2=O)C[C@@](O)(C(=O)CO)C[C@@H]3O[C@H]1C[C@H](N)[C@H](O)[C@H](C)O1 [DOXORUBICIN]
IC50 (K562): 0.07 µM | IC50 (MDA-MB-231): 0.6 µM | IC50 (HeLa): 0.37 µM | IC50 (MCF7): 0.41 µM

COC(=O)c1scc(-c2ccc(NC(=O)c3ccc4ccccc4c3)cc2)c1OC
IC50 (HepG2): 19.5 µM | IC50 (K562): 10.2 µM | IC50 [1]: 5.25 µM | IC50 (MDA-MB-231): 5.25 µM | IC50 (HeLa): 18.2 µM | Stability [2]: Stable | IC50 (MCF7): 0.09 µM

COC(=O)c1scc(-c2ccc(NC(=O)c3cc(I)ccc3F)cc2)c1OC
IC50 (K562): 35.6 µM | IC50 [1]: 20.6 µM | IC50 (HEK293): 45.2 µM | IC50 (MDA-MB-231): 16.5 µM | IC50 (MCF7): 22.5 µM
